Measured values reported in patent publication US20050059645A1, “Methods for the treatment of male and female sexual dysfunction” (priority 2003, published 2005).
Like-named read-outs stand apart in the source and are kept apart here.

What was measured:
[1] = tested on: LH; conditions: cited from earlier work
[2] = tested on: testosterone; conditions: 1 mg/kg i.v., cited from earlier work
[3] = tested on: LH; test: Plasma LH by radioimmunoassay in ovariectomized female rats; assay type: in vivo, rat; conditions: 0.003, 0.01 and 0.03 mg/kg i.v. daily for 5 days
Method: After recovery from surgery, ovariectomized female rats were divided into four groups and treated once a day for five days intravenously, via a bolus injection through the tail vein, as follows: (1) control, 27% HPβCD solution; (2) 0.003 mg/kg E2-CDS dissolved in 27% HPβCD solution; (3) 0.01 mg/kg E2-CDS dissolved in 27% HPβCD solution; and (4) 0.03 mg/kg E2-CDS dissolved in 27% HPβCD solution. A minimal number of ovariectomized (8 to 12) females were used per group. Intravenous treatments either with E2-CDS or HPβCD (controls) were carried out daily for 5 days beginning 2 days prior to the first day of behavior observations, in a volume of 0.05 ml/100 g body weight.
An experienced and active male rat was placed in the arena 5 minutes prior to the female. […] The lordosis quotient (LQ) expresses the estrogen effect on sexual receptivity and was calculated as follows: LQ=100×number of lordoses/10 mounts The observation of the sexual behavior of each female was carried out, in the case of E2-CDS, every day for 22 days; in the case of EB, investigations were carried out every day for 10 days. […] Citrated blood samples were taken by retro-orbital sinus puncture under light ether anesthesia. […] Plasma LH concentrations from individual samples were measured by double antibody radioimmunoassay kits obtained from Amersham Pharmacia Biotech, Rome, Italy. […]

[4] = female, human, in vivo, 2.5 mg
From the text: (§1) A brief evaluation of the results follows:
One explanation for this difference might be the difference in the dissolution (and buccal residence) time of the two formulations used in these two different studies.

[5] = tested on: testosterone; test: Phase I repeated buccal dosing in postmenopausal women: serum testosterone; assay type: in vivo, human; conditions: for testosterone level exceeding baseline: 72 hours after last dose
Method: (§2) Even more recently, in a Phase I clinical study of postmenopausal women, two different administration regimens of a 2.86 mg E2-CDS buccal delivery tablet were evaluated for safety and effects on hormone levels. The subjects were 12 healthy postmenopausal volunteers, divided into two groups of six. In Group A, women were dosed once daily for 10 days (10 doses); in Group B, women were dosed once every other day for 13 days (7 doses).

[6] = tested on: castrated male rats; conditions: cited from earlier work
[7] = tested on: postmenopausal women; test: Phase I: safety and tolerance (adverse events); conditions: 2.86 mg buccal, both regimens
Method: as §2

[8] = tested on: 2OHE1/16OHE1; test: Phase I: urinary estrone metabolites 2OHE1/16OHE1; assay type: in vivo, human; conditions: for amount of urinary 16OHE1 relative to day 1: female, human, in vivo
From the text: as §1

[9] = tested on: LH; conditions: cited from earlier work; remark: listed apart in the source
[10] = tested on: LH; conditions: cited from earlier work; remark: listed apart in the source
[11] = tested on: morphine-dependent rats; conditions: cited from earlier work

CN1C=CCC(C(=O)O[C@H]2CC[C@H]3[C@@H]4CCc5cc(O)ccc5[C@H]4CC[C@]23C)=C1 [E2-CDS, 17β-[(1-methyl-1,4-dihydro-3-pyridinyl)carbonyloxy]estra-1,3,5(10)-trien-3-ol]
effects on plasma LH ([1]; 1280 μg single i.v. dose group): substantial and sustained decreases | effects on plasma LH ([1]; 10-40 μg single i.v. dose group): Minimal effects | effects on plasma LH ([1]; 80-640 μg single i.v. dose group): threshold effects | time through which LH was lowered in a clinically meaningful way ([1]; single 1280 μg i.v. dose, one post-menopausal volunteer): 96 h | decrease of serum testosterone levels ([2]; one day after treatment): 99% | suppression of serum testosterone ([2]; through 14 days post-treatment): more than 96% | plasma LH levels, effect [3]: suppressed at all dosage levels | Tmax of E2 [4]: 2 h | average Cmax of E2 [4]: 0.1534 ng/mL | testosterone level exceeding baseline ([5]; Group A): 14% | testosterone level exceeding baseline ([5]; Group B): 28% | time to reach minimum testosterone level ([5]; day 1, Group A): 6.5 ± 11.7 h | mean testosterone AUC24 lower than baseline AUC24 ([5]; day 1, Group B): 23.0% | time to reach minimum testosterone level ([5]; day 1, Group B): 7.3 ± 11.3 h | masculine sexual behavior ([6]; 3 mg/kg i.v. (Anderson '911 patent)): stimulated mounting behavior, increased intromission behavior and reduced both mount latency and intromission latency | ejaculatory behavior ([6]; 3 mg/kg single tail vein injection in DMSO (Anderson 1987)): ejaculatory behavior was not restored | duration of improved masculine sexual behavior ([6]; single i.v. dose of 3 mg/kg (Anderson '911 patent)): 28 days | severity of adverse events [7]: All AEs were mild or moderate, no serious AE was observed | increase of ratio of 2OHE1 to 16OHE1 during treatment ([8]; Group A): 63.6% | increase of ratio of 2OHE1 to 16OHE1 during treatment ([8]; Group B): 54.7% | difference of mean ratios, urine ([8]; day 10-1, Group A): 0.15 | difference of mean ratios, urine ([8]; day 13-1, Group B): 0.05 | amount of urinary 16OHE1 relative to day 1 ([8]; 10 day): 2.48 times | amount of urinary 16OHE1 relative to day 1 ([8]; 13 day): 1.26 times | duration of LH suppression ([9]; 0.1 mg/kg i.v. in 20% (w/v) HPβCD, castrated female rats (Brewster 1988)): 18 days | LH inhibition ([9]; 0.5 mg/kg single i.v., day 12 (Estes 1987, Experiment 3)): heterogeneous results | LH compared to equimolar estradiol 17-valerate ([9]; 0.5 mg/kg single i.v., day 12 or 18 (Estes 1987, Experiment 4)): significantly decreased by E2-CDS compared to estradiol valerate | plasma LH ([9]; 1.0 mg/kg i.v. single and multiple weekly doses (Rahimy 1991)): significantly suppressed for single and multiple doses | serum LH decrease compared to vehicle ([9]; 2 mg/kg single i.v., day 12 (Estes 1987, Experiment 3)): 75% | serum LH decrease compared to vehicle ([9]; 5 mg/kg single i.v., day 12 (Estes 1987, Experiment 3)): 91% | reduction in serum LH ([9]; multiple i.v. injections (7, every two days) 10 to 333 μg/kg (Anderson 1988)): 32-76% | reduction in serum LH ([9]; single i.v. dose 10 μg/kg (Anderson 1988)): no effect | reduction in serum LH ([9]; single i.v. dose 33 to 333 μg/kg, 2 days before sacrifice (Anderson 1988)): 39-52% | LH levels ([10]; 3 mg/kg single i.v., 12, 18 and 24 days post-treatment): remained very significantly reduced | duration of suppression of LH ([10]; castrated male rats, 3 mg/kg i.v. studies): at least 24 days | naloxone-induced rise in TST ([11]; 1 mg/kg i.v. once weekly for three weeks, tested one week after last injection): significantly attenuated | attenuation of naloxone-induced rise in TST ([11]; single 1 mg/kg i.v., tested one week after injection): 25%
